Assay results published in US20240216369A1, “THE USE OF A SPLICING MODULATOR FOR A TREATMENT SLOWING PROGRESSION OF HUNTINGTON'S DISEASE” (Novartis AG, priority 2019, published 2024).

Tests used:
mHTT = assay: Mutant and total HTT multiplex HTRF assay in Q48 HTT human embryonic stem cell line: mHTT; format: cell-based; conditions: Q48 HTT hESC, 48 hours
Procedure: (§1) The multiplex assay is performed in human embryonic stem cells (hESCs) which have been derived by Genea Biocells from human blastocysts of HD donors. Cells are plated at a density of 10,000 cells/well into 384-well collagen coated plates and left to adhere for 24 hours, compounds 1 to 82 are then added to cells and incubated for 48 hours (37° C., 5% CO2), cells are then lysed and the contents split into a black 384-well plate.
(§2) The black plates have a combination of HTRF labeled monoclonal antibodies added which recognize discrete areas of the HTT protein, the 2B7-Tb “donor” antibody (0.2 ng/well) recognizes a sequence at the N-terminus of the protein, an MW1-Alexa488 “acceptor 1” antibody (30 ng/well) recognizes an area in the polyQ region, whereas a MAB2166-d2 “acceptor 2” antibody (6 ng/well) recognizes a sequence beyond the polyQ region. The 2B7 antibody was obtained from Coriell (CH02024), the MW1 antibody from Millipore (MABN2427), and the MAB2166 antibody from Millipore (1HU-4C8).
(§3) These detection reagents are incubated with the cell lysate at room temperature for 4-6 hours before having their fluorescence quantified at 615 nm (donor) and 535 nm and 665 nm (acceptor 1 and 2 respectively). The donor/acceptor ratio between these signals indicates the relative quantities of mHTT and tHTT proteins. As shown in the Table 1, compounds 1 to 82 as described therein and in Table 2, had the following pIC50 values.

tHTT = assay: Mutant and total HTT multiplex HTRF assay in Q48 HTT human embryonic stem cell line: tHTT; format: cell-based; conditions: Q48 HTT hESC, 48 hours
Procedure: as §1, §2, §3

Structure (SMILES)	Rating (based on mHTT potency) (mHTT)	mHTT pIC50 (mHTT)	tHTT pIC50 (tHTT)
CN(c1nnc(-c2c(F)cc(-c3cn[nH]c3)cc2F)s1)C1CC(C)(C)NC(C)(C)C1 [Compound 45, 5-(2,6-difluoro-4-(1H-pyrazol-4-yl)phenyl)-N-methyl-N-(2,2,6,6-tetramethylpiperidin-4-yl)-1,3,4-thiadiazol-2-amine]	*** (a pIC50 value between 6.5 and 7.0 is indicated by three stars (***))	6.861	6.7715
Cc1cnc2cc(O)c(-c3ccc(N(C)C4CC(C)(C)NC(C)(C)C4)nn3)cc2n1 [Compound 46, 2-methyl-7-(6-(methyl(2,2,6,6-tetramethylpiperidin-4-yl)amino)pyridazin-3-yl)quinoxalin-6-ol]	*** (a pIC50 value between 6.5 and 7.0 is indicated by three stars (***))	6.8485	6.778
Cc1ccc2cc(-c3ccc(N(C)C4CC(C)(C)NC(C)(C)C4)nn3)c(O)cc2n1 [Compound 47, 2-methyl-6-(6-(methyl(2,2,6,6-tetramethylpiperidin-4-yl)amino)pyridazin-3-yl)quinolin-7-ol]	*** (a pIC50 value between 6.5 and 7.0 is indicated by three stars (***))	6.8415	6.92
CC1(C)CC(Nc2ccc(-c3cc4cc(C#N)ccc4s3)nn2)CC(C)(C)N1 [Compound 48, 2-(6-(2,2,6,6-tetramethylpiperidin-4-ylamino)pyridazin-3-yl)benzo[b]thiophene-5-carbonitrile]	*** (a pIC50 value between 6.5 and 7.0 is indicated by three stars (***))	6.822	6.9
CN(c1nnc(-c2ccc(-c3ccn(C)c(=O)c3)cc2O)s1)C1CC(C)(C)NC(C)(C)C1 [Compound 49, 4-(3-hydroxy-4-(5-(methyl(2,2,6,6-tetramethylpiperidin-4-yl)amino)-1,3,4-thiadiazol-2-yl)phenyl)-1-methylpyridin-2(1H)-one]	*** (a pIC50 value between 6.5 and 7.0 is indicated by three stars (***))	6.819	6.6665
COc1ccnc2cc(-c3ccc(N(C)C4CC(C)(C)NC(C)(C)C4)nn3)c(O)cc12 [Compound 50, 4-methoxy-7-(6-(methyl(2,2,6,6-tetramethylpiperidin-4-yl)amino)pyridazin-3-yl)quinolin-6-ol]	*** (a pIC50 value between 6.5 and 7.0 is indicated by three stars (***))	6.8055	6.7835
CN(c1ccc(-c2cc3c(C(N)=O)nccc3cc2O)nn1)C1CC(C)(C)NC(C)(C)C1 [Compound 51, 6-hydroxy-7-(6-(methyl(2,2,6,6-tetramethylpiperidin-4-yl)amino)pyridazin-3-yl)isoquinoline-1-carboxamide]	*** (a pIC50 value between 6.5 and 7.0 is indicated by three stars (***))	6.801	6.779
CN(c1ccc(-c2cc3ccncc3cc2O)nn1)C1CC(C)(C)NC(C)(C)C1 [Compound 52, 6-(6-(methyl(2,2,6,6-tetramethylpiperidin-4-yl)amino)pyridazin-3-yl)isoquinolin-7-ol]	*** (a pIC50 value between 6.5 and 7.0 is indicated by three stars (***))	6.7625	6.6455
Cc1cc(C2CC2)c2cc(-c3ccc(N(C)C4CC(C)(C)NC(C)(C)C4)nn3)c(O)cc2n1 [Compound 53, 4-cyclopropyl-2-methyl-6-(6-(methyl(2,2,6,6-tetramethylpiperidin-4-yl)amino)pyridazin-3-yl)quinolin-7-ol]	*** (a pIC50 value between 6.5 and 7.0 is indicated by three stars (***))	6.746	6.7095
Cc1nc2cc(-c3ccc(N(C)C4CC(C)(C)NC(C)(C)C4)nn3)c(O)cc2[nH]1 [Compound 54, 2-methyl-5-(6-(methyl(2,2,6,6-tetramethylpiperidin-4-yl)amino)pyridazin-3-yl)-1H-benzo[d]imidazol-6-ol]	*** (a pIC50 value between 6.5 and 7.0 is indicated by three stars (***))	6.728	6.753
CN(c1ccc(-c2cc3c(=O)nc[nH]c3cc2O)nn1)C1CC(C)(C)NC(C)(C)C1 [Compound 55, 7-hydroxy-6-(6-(methyl(2,2,6,6-tetramethylpiperidin-4-yl)amino)pyridazin-3-yl)quinazolin-4(1H)-one]	*** (a pIC50 value between 6.5 and 7.0 is indicated by three stars (***))	6.71	6.7485
CCc1cnc2cc(O)c(-c3ccc(N(C)C4CC(C)(C)NC(C)(C)C4)nn3)cc2c1 [Compound 56, 3-ethyl-6-(6-(methyl(2,2,6,6-tetramethylpiperidin-4-yl)amino)pyridazin-3-yl)quinolin-7-ol]	*** (a pIC50 value between 6.5 and 7.0 is indicated by three stars (***))	6.709	6.709
COc1ccc2cc(-c3ccc(N(C)C4CC(C)(C)NC(C)(C)C4)nn3)c(O)cc2c1 [Compound 57, 7-methoxy-3-(6-(methyl(2,2,6,6-tetramethylpiperidin-4-yl)amino)pyridazin-3-yl)naphthalen-2-ol]	*** (a pIC50 value between 6.5 and 7.0 is indicated by three stars (***))	6.7085	6.791
COc1cc(-c2cn[nH]c2)cc(O)c1-c1ccc(N(C)C2CC(C)(C)NC(C)(C)C2)nn1 [Compound 58, 3-methoxy-2-(6-(methyl(2,2,6,6-tetramethylpiperidin-4-yl)amino)pyridazin-3-yl)-5-(1H-pyrazol-4-yl)phenol]	*** (a pIC50 value between 6.5 and 7.0 is indicated by three stars (***))	6.698	6.6555
Cc1nc(-c2ccc(-c3ccc(N(C)C4CC(C)(C)NC(C)(C)C4)nn3)c(O)c2)c[nH]1 [Compound 59, 2-(6-(methyl(2,2,6,6-tetramethylpiperidin-4-yl)amino)pyridazin-3-yl)-5-(2-methyl-1H-imidazol-4-yl)phenol]	*** (a pIC50 value between 6.5 and 7.0 is indicated by three stars (***))	6.678	6.5065
Cc1ncc2cc(-c3ccc(N(C)C4CC(C)(C)NC(C)(C)C4)nn3)c(O)cc2n1 [Compound 60, 2-methyl-6-(6-(methyl(2,2,6,6-tetramethylpiperidin-4-yl)amino)pyridazin-3-yl)quinazolin-7-ol]	*** (a pIC50 value between 6.5 and 7.0 is indicated by three stars (***))	6.6725	6.7
CN(c1ccc(-c2ccc(C3=CCNCC3)cc2O)nn1)C1CC(C)(C)NC(C)(C)C1 [Compound 61, 2-(6-(methyl(2,2,6,6-tetramethylpiperidin-4-yl)amino)pyridazin-3-yl)-5-(1,2,3,6-tetrahydropyridin-4-yl)phenol]	*** (a pIC50 value between 6.5 and 7.0 is indicated by three stars (***))	6.661	6.659
COc1cc(-c2sc(C)nc2C)ccc1-c1nnc(N(C)C2CC(C)(C)NC(C)(C)C2)s1 [Compound 62, 5-(4-(2,4-dimethylthiazol-5-yl)-2-methoxyphenyl)-N-methyl-N-(2,2,6,6-tetramethylpiperidin-4-yl)-1,3,4-thiadiazol-2-amine]	*** (a pIC50 value between 6.5 and 7.0 is indicated by three stars (***))	6.6555	6.6405
CCOc1cc(C)nc2cc(O)c(-c3ccc(N(C)C4CC(C)(C)NC(C)(C)C4)nn3)cc12 [Compound 63, 4-ethoxy-2-methyl-6-(6-(methyl(2,2,6,6-tetramethylpiperidin-4-yl)amino)pyridazin-3-yl)quinolin-7-ol]	*** (a pIC50 value between 6.5 and 7.0 is indicated by three stars (***))	6.63	6.534
CN(c1ccc(-c2cc3ccc(C#N)nc3cc2O)nn1)C1CC(C)(C)NC(C)(C)C1 [Compound 64, 7-hydroxy-6-(6-(methyl(2,2,6,6-tetramethylpiperidin-4-yl)amino)pyridazin-3-yl)quinoline-2-carbonitrile]	*** (a pIC50 value between 6.5 and 7.0 is indicated by three stars (***))	6.5945	6.5885
COc1cc(-c2cn[nH]c2)c(F)c(F)c1-c1nnc(N(C)C2CC(C)(C)NC(C)(C)C2)s1 [Compound 65, 5-(2,3-difluoro-6-methoxy-4-(1H-pyrazol-4-yl)phenyl)-N-methyl-N-(2,2,6,6-tetramethylpiperidin-4-yl)-1,3,4-thiadiazol-2-amine]	*** (a pIC50 value between 6.5 and 7.0 is indicated by three stars (***))	6.5865	6.5835
CN(c1ccc(-c2cc3c(cc2O)C(=O)CC3)nn1)C1CC(C)(C)NC(C)(C)C1 [Compound 66, 6-hydroxy-5-(6-(methyl(2,2,6,6-tetramethylpiperidin-4-yl)amino)pyridazin-3-yl)-2,3-dihydro-1H-inden-1-one]	*** (a pIC50 value between 6.5 and 7.0 is indicated by three stars (***))	6.5815	6.637
